≈ marks a conversion by molar mass, not a printed value. Read-outs that look alike come from different tables or passages of the source. Non-standard residues stand in square brackets, D forms with d. Residues, ends and D or L forms follow the SMILES beside them.
What was measured:
[1] = test system: Acinetobacter baumannii (KCCM 40203); assay type: cell-based
Source text: (§1) The gram-negative bacterial strains Escherichia coli (KCTC 1682) and Acinetobacter baumannii (KCCM 40203) were purchased from the Korean Collection for Type Cultures (Korea) and the Korean Culture Center of Microorganisms (Korea), respectively. The MDR gram-negative strains Escherichia coli CCARM 1229, Escherichia coli CCARM 1238, Acinetobacter baumannii CCARM 12010, and Acinetobacter baumannii CCARM 12220 were obtained from the Culture Collection of Antibiotic-Resistant Microbes at Seoul Women’s University (South Korea).
(§2) The antibacterial properties of all peptides were determined by measuring the Minimum Inhibitory Concentration (MIC) as described previously. […] Two-fold serial dilutions of respective peptides were inoculated in 96-well plates in Mueller-Hinton medium, followed by the addition of bacterial suspensions (2 × 10^5 CFU/ml) at the log growth phase. The plates were incubated at 37°C for 16 h, and absorbance was read at 600 nm using a SpectraMAX microplate reader (Molecular Devices, USA).

[2] = test system: Escherichia coli (KCTC 1682); assay type: cell-based
Source text: as §1, §2

[3] = test system: MDR Acinetobacter baumannii CCARM 12010; assay type: cell-based; details: MDRAB 12010; 99% growth inhibition; 2 × 10^5 CFU/ml, 37°C, 16 h, A600
Source text: as §1, §2

[4] = test system: MDR Acinetobacter baumannii CCARM 12220; assay type: cell-based; details: MDRAB 12220; 99% growth inhibition; 2 × 10^5 CFU/ml, 37°C, 16 h, A600
Source text: as §1, §2

[5] = test system: MDR Escherichia coli CCARM 1229; assay type: cell-based; details: MDREC 1229; 99% growth inhibition; 2 × 10^5 CFU/ml, 37°C, 16 h, A600
Source text: as §1, §2

[6] = test system: MDR Escherichia coli CCARM 1238; assay type: cell-based; details: MDREC 1238; 99% growth inhibition; 2 × 10^5 CFU/ml, 37°C, 16 h, A600
Source text: as §1, §2

RAW264.7 cells = test: Cytotoxicity, WST-8 cell proliferation assay; assay type: cell-based, mouse; details: 24 h, mean of three experiments
Protocol: (§3) The capacity of peptides in the lysis of erythrocytes was analyzed using sheep red blood cells (RBCs) as described previously. Cytotoxicity was further assessed in mouse macrophage RAW264.7 cells, which were cultured in Dulbecco’s modified Eagle medium (Thermo Fischer Scientific Inc., USA) enriched with fetal bovine serum (10%) and antibiotics (penicillin/streptomycin, 100 IU/ 100 mg/L) at 37°C in a CO2 incubator. The cytotoxic effect of Pro9-3 series peptides against RAW264.7 cells was then determined using WST-8 Cell Proliferation Assay Kit (Biomax Co. Ltd., Korea). The analysis was carried out according to our previously reported method.
Fig. 1 Cytotoxicities of peptides. (A) Dose-dependent hemolytic activities in sheep red blood cell (sRBC) caused by peptides. (B) Dose-response cytotoxicities of the Pro9-3 and its analogs against RAW264.7 cells for 24 h. Melittin was used as a positive control. The values are expressed as the mean ± SEM of three independent experiments: *p < 0.05; **p < 0.01; ***p < 0.001; ns, not significant.

[7] = Limulus amebocyte lysate (LAL) assay, LPS neutralization; assay type: biochemical, Escherichia coli; details: 50 μM peptide, 2 ng/ml LPS, 15 min at 37°C
Protocol: To check the endotoxin clearance properties of peptides, LAL assay was performed according to the protocol provided in the kit (Pierce LAL Chromogenic Endotoxin Quantitation Kit, Thermo Fisher Scientific). Escalating concentrations of peptides (up to 50 μM) were added with 2 ng/ml LPS (E. coli O111:B4, Sigma-Aldrich, USA) for 15 min at 37°C. To this content, an equal volume of LAL reagent was added and incubated for 15 min and then chromogenic substrate was added. The contents were incubated for another 10 min and 25% acetic acid was used to stop the reaction. The end color (yellow) formed due to […] of substrate was read at 405 nm. LL-37 was used as a control.

sheep red blood cells = test: Hemolysis of sheep red blood cells; assay type: cell-based
Protocol: as §3

[8] = test system: gram-negative bacterial strains and MDR bacterial strains; test: Geometric mean of MICs over all tested bacterial strains and relative selective index; assay type: cell-based, Escherichia coli, Acinetobacter baumannii; details: larger values indicate greater cell selectivity
Protocol: The geometric means (GM) of MICs were assessed to evaluate the antibacterial activities of Pro9-3 series against tested bacterial strains.

[9] = A. baumannii KCCM 40203, 99% growth inhibition, 2 × 10^5 CFU/ml, 37°C, 16 h, A600
[10] = E. coli KCTC 1682, 99% growth inhibition, 2 × 10^5 CFU/ml, 37°C, 16 h, A600

CC[C@H](C)[C@H](NC(=O)[C@H](C)NC(=O)[C@H](CC(C)C)NC(=O)[C@H](Cc1c[nH]c2ccccc12)NC(=O)[C@H](CC(C)C)NC(=O)[C@@H](N)CCCCN)C(=O)N[C@@H](Cc1c[nH]c2ccccc12)C(=O)N[C@@H](CCCCN)C(=O)N[C@@H](CCCCN)C(N)=O [Pro9-3-K] (H-KLWLAIWKK-NH2)
Minimal inhibitory concentration (MIC) [1, 9]: 64 µM (≈ 75.8 µg/mL) | Minimal inhibitory concentration (MIC) [2, 10]: 64 µM (≈ 75.8 µg/mL) | Minimal inhibitory concentration (MIC) [3]: 64 µM (≈ 75.8 µg/mL) | Minimal inhibitory concentration (MIC) [4]: 64 µM (≈ 75.8 µg/mL) | Minimal inhibitory concentration (MIC) [5]: 64 µM (≈ 75.8 µg/mL) | Minimal inhibitory concentration (MIC) [6]: 64 µM (≈ 75.8 µg/mL) | Survival of RAW264.7 macrophage cells (RAW264.7 cells; 100 μM peptide): 100%

LL-37
LPS neutralization (LAL assay) [7]: 91%

CC[C@H](C)[C@H](NC(=O)[C@H](C)NC(=O)[C@H](CC(C)C)NC(=O)[C@H](Cc1c[nH]c2ccccc12)NC(=O)[C@H](CC(C)C)NC(=O)[C@@H](N)CCCNC(=N)N)C(=O)N[C@@H](Cc1c[nH]c2ccccc12)C(=O)N[C@@H](CCCNC(=N)N)C(=O)N[C@@H](CCCNC(=N)N)C(N)=O [Pro9-3] (H-RLWLAIWRR-NH2)
Minimal inhibitory concentration (MIC) ([1]; KCCM 40203, 16 h): 16 µM (≈ 20.3 µg/mL) | Minimal inhibitory concentration (MIC) ([2]; KCTC 1682, 16 h): 16 µM (≈ 20.3 µg/mL) | Minimal inhibitory concentration (MIC) [3]: 16 µM (≈ 20.3 µg/mL) | Minimal inhibitory concentration (MIC) [4]: 16 µM (≈ 20.3 µg/mL) | Minimal inhibitory concentration (MIC) [5]: 16 µM (≈ 20.3 µg/mL) | Minimal inhibitory concentration (MIC) [6]: 32 µM (≈ 40.6 µg/mL) | HC10 (peptide concentration which induces 10% hemolysis) (sheep red blood cells): 200 µM | Survival of RAW264.7 macrophage cells (RAW264.7 cells; 100 μM peptide): 100%

CC[C@@H](C)[C@@H](NC(=O)[C@@H](C)NC(=O)[C@@H](CC(C)C)NC(=O)[C@@H](Cc1c[nH]c2ccccc12)NC(=O)[C@@H](CC(C)C)NC(=O)[C@H](N)CCCCN)C(=O)N[C@H](Cc1c[nH]c2ccccc12)C(=O)N[C@H](CCCCN)C(=O)N[C@H](CCCCN)C(N)=O [Pro9-3D-K] (H-[dK][dL][dW][dL][dA][dI][dW][dK][dK]-NH2)
Minimal inhibitory concentration (MIC) [1, 9]: 32 µM (≈ 37.9 µg/mL) | Minimal inhibitory concentration (MIC) [2, 10]: 16 µM (≈ 19 µg/mL) | Minimal inhibitory concentration (MIC) [3]: 32 µM (≈ 37.9 µg/mL) | Minimal inhibitory concentration (MIC) [4]: 32 µM (≈ 37.9 µg/mL) | Minimal inhibitory concentration (MIC) [5]: 32 µM (≈ 37.9 µg/mL) | Minimal inhibitory concentration (MIC) [6]: 16 µM (≈ 19 µg/mL) | Survival of RAW264.7 macrophage cells (RAW264.7 cells; 50 μM peptide): 71%

CC[C@H](C)[C@H](NC(=O)CN)C(=O)NCC(=O)N[C@@H](C)C(=O)N[C@H](C(=O)N[C@@H](CC(C)C)C(=O)N[C@@H](CCCCN)C(=O)N[C@H](C(=O)N[C@@H](CC(C)C)C(=O)N[C@H](C(=O)N[C@H](C(=O)NCC(=O)N[C@@H](CC(C)C)C(=O)N1CCC[C@H]1C(=O)N[C@@H](C)C(=O)N[C@@H](CC(C)C)C(=O)N[C@H](C(=O)N[C@@H](CO)C(=O)N[C@@H](Cc1c[nH]c2ccccc12)C(=O)N[C@H](C(=O)N[C@@H](CCCCN)C(=O)N[C@@H](CCCNC(=N)N)C(=O)N[C@@H](CCCCN)C(=O)N[C@@H](CCCNC(=N)N)C(=O)N[C@@H](CCC(N)=O)C(=O)N[C@@H](CCC(N)=O)C(N)=O)[C@@H](C)CC)[C@@H](C)CC)[C@@H](C)O)[C@@H](C)O)C(C)C)C(C)C [Melittin, reference compound]
Minimal inhibitory concentration (MIC) [1, 9]: 8 µM (≈ 22.8 µg/mL) | Minimal inhibitory concentration (MIC) [3]: 8 µM (≈ 22.8 µg/mL) | Minimal inhibitory concentration (MIC) [4]: 8 µM (≈ 22.8 µg/mL) | Minimal inhibitory concentration (MIC) [5]: 16 µM (≈ 45.5 µg/mL) | Minimal inhibitory concentration (MIC) [6]: 32 µM (≈ 91.1 µg/mL) | Relative selective index (HC10/GM of the MIC) [8]: 0.06 | Hemolytic activity in sRBC (in words) (sheep red blood cells; escalated dose of peptides, Fig. 1A): severe cytotoxicity even at low concentration

CC[C@@H](C)[C@@H](NC(=O)[C@@H](C)NC(=O)[C@@H](CC(C)C)NC(=O)[C@@H](Cc1c[nH]c2ccccc12)NC(=O)[C@@H](CC(C)C)NC(=O)[C@H](N)CCCNC(=N)N)C(=O)N[C@H](Cc1c[nH]c2ccccc12)C(=O)N[C@H](CCCNC(=N)N)C(=O)N[C@H](CCCNC(=N)N)C(N)=O [Pro9-3D] (H-[dR][dL][dW][dL][dA][dI][dW][dR][dR]-NH2)
Minimal inhibitory concentration (MIC) ([1]; KCCM 40203, 16 h): 4 µM (≈ 5.07 µg/mL) | Minimal inhibitory concentration (MIC) [2, 10]: 8 µM (≈ 10.1 µg/mL) | Minimal inhibitory concentration (MIC) [3]: 8 µM (≈ 10.1 µg/mL) | Minimal inhibitory concentration (MIC) [4]: 8 µM (≈ 10.1 µg/mL) | Minimal inhibitory concentration (MIC) [5]: 8 µM (≈ 10.1 µg/mL) | Minimal inhibitory concentration (MIC) [6]: 4 µM (≈ 5.07 µg/mL) | HC10 (peptide concentration which induces 10% hemolysis) (sheep red blood cells): 200 µM | Survival of RAW264.7 macrophage cells (RAW264.7 cells; 50 μM peptide): 40%

Reference: publication PMC9705858, “Anti-Endotoxin 9-Meric Peptide with Therapeutic Potential for the Treatment of Endotoxemia” (Journal of Microbiology and Biotechnology, 2020)
